Key:
Type in all cases: cell-based
HCT116 cancer cells = assay: Cell viability (MTT) assay, HCT116; details: Homo sapiens, HCT-116; inhibiting the growth of HCT116 cancer cells, cell viability assay (Table 5)
Procedure: (§1) Cell viability was analyzed by using a colorimetric 3-(4,5-dimethylthiazol-[…]2-yl)-2,5-diphenyletetrazolium Bromide (MTT) assay that determines mitochondrial dehydrogenase activities in the living cells with a colorimetric method. Cells treated with test compounds were incubated with MTT and their effect on the viability of the cells was assayed by the ability of treated cells to reduce the yellow tetrazolium dye MTT to its insoluble formazan, which has a purple color. […]

MDA-MB-231 cancer cells = assay: Cell viability (MTT) assay, MDA-MB-231; details: Homo sapiens; inhibiting the growth of MDA-MB-231 cancer cells, cell viability assay (Table 6)
Procedure: as §1

MDA-MB-231 cells = assay: PARP cleavage assay (Western blotting), MDA-MB-231; details: 6 hours
From the text: Compound 1a had no effect under the same conditions (FIG. 1A). […] Compound 1a, 28a, 47a, 48a, 73a, 39a, 70a, 103a, 89a and 88a had no effect under the same conditions (FIG. 3B-C).

[1] = tested on: mTOR markers p-S6 and p-4EBP1; assay: mTOR inhibition: expression of mTOR markers; details: MDA-MB-231 cells, 1 μM, 6 hours

Row | IC50 (HCT116 cancer cells) | IC50 (MDA-MB-231 cancer cells) | Structure (SMILES) | PARP cleavage (MDA-MB-231 cells; 0.5 μM) | PARP cleavage (MDA-MB-231 cells; 1 μM) | expression levels of mTOR markers p-S6 and p-4EBP1 [1]
1 | < 500 nM | < 500 nM | Fc1ccc2[nH]cc([C+](c3ccc(C(F)(F)F)cc3)c3c[nH]c4ccccc34)c2c1.[Cl-] [Compound 73, (5-Fluoro-1H-indol-3-yl)(1H-indol-3-yl)(4-(trifluoromethyl)phenyl)methylium chloride] | effectively induced PARP cleavage | effectively induce PARP cleavage | reduced the expression levels
2 | 500 to 5000 nM | 500 to 5000 nM | FC(F)(F)Oc1ccc([C+](c2c[nH]c3ccccc23)c2c[nH]c3ccccc23)cc1.[Cl-] [Compound 39, Bis(1H-indol-3-yl)(4-(trifluoromethoxy)phenyl)methylium chloride] | effectively induced PARP cleavage | effectively induce PARP cleavage | reduced the expression levels
3 | – | – | FC(F)(F)c1ccc([C+](c2c[nH]c3cc(Cl)ccc23)c2c[nH]c3cc(Cl)ccc23)cc1.[Cl-] [Compound 67, Bis(6-chloro-1H-indol-3-yl)(4-(trifluoromethyl)phenyl)methylium chloride] | – | effectively induce PARP cleavage | reduced the expression levels
4 | – | – | Cc1ccc2[nH]cc([C+](c3ccc(C(F)(F)F)cc3)c3c[nH]c4ccc(C)cc34)c2c1 [Compound 15, Bis(5-methyl-1H-indol-3-yl)(4-(trifluoromethyl)phenyl)methylium methanesulfonate] | – | effectively induce PARP cleavage | reduced the expression levels
5 | – | – | FC(F)(F)c1ccc([C+](c2cn(-c3ccccc3)c3ccccc23)c2cn(-c3ccccc3)c3ccccc23)cc1.[Cl-] [Compound 74, Bis(1-phenyl-1H-indol-3-yl)(4-(trifluoromethyl)phenyl)methylium chloride] | – | effectively induce PARP cleavage | reduced the expression levels
6 | – | – | Cc1ccc2c([C+](c3ccc(C(F)(F)F)cc3)c3c[nH]c4ccccc34)c[nH]c2c1.[Cl-] [Compound 54, (6-Methyl-1H-indol-3-yl)(1H-indol-3-yl)(4-(trifluoromethyl)phenyl)methylium chloride] | – | effectively induce PARP cleavage | reduced the expression levels
7 | < 500 nM | < 500 nM | Fc1cccc2c([C+](c3ccc(C(F)(F)F)cc3)c3c[nH]c4ccccc34)c[nH]c12.[Cl-] [Compound 71, (7-Fluoro-1H-indol-3-yl)(1H-indol-3-yl)(4-(trifluoromethyl)phenyl)methylium chloride] | – | effectively induce PARP cleavage | reduced the expression levels
8 | – | – | Cn1cc([C+](c2ccc(C(F)(F)F)cc2)c2cn(C)c3ccccc23)c2ccccc21 [Compound 11, Bis(1-methyl-1H-indol-3-yl)(4-(trifluoromethyl)phenyl)methylium methanesulfonate] | – | effectively induce PARP cleavage | reduced the expression levels
9 | – | – | Fc1cccc2c([C+](c3ccc(C(F)(F)F)cc3)c3c[nH]c4c(F)cccc34)c[nH]c12.[Cl-] [Compound 62, Bis(7-fluoro-1H-indol-3-yl)(4-(trifluoromethyl)phenyl)methylium chloride] | – | effectively induce PARP cleavage | reduced the expression levels
10 | – | – | Fc1cccc2[nH]cc([C+](c3ccc(C(F)(F)F)cc3)c3c[nH]c4ccccc34)c12.[Cl-] [Compound 72, (4-Fluoro-1H-indol-3-yl)(1H-indol-3-yl)(4-(trifluoromethyl)phenyl)methylium chloride] | – | effectively induce PARP cleavage | reduced the expression levels
11 | – | – | Cl.Fc1ccc2c([C+](c3ccc(C(F)(F)F)cc3)c3c[nH]c4cc(F)ccc34)c[nH]c2c1 [Compound 22, Bis(6-fluoro-1H-indol-3-yl)(4-(trifluoromethyl)phenyl)methylium chloride] | – | effectively induce PARP cleavage | reduced the expression levels
12 | – | – | FC(F)(F)c1ccc([C+](c2c[nH]c3cc(Cl)ccc23)c2c[nH]c3cc(Cl)ccc23)cc1 [Compound 24, Bis(6-chloro-1H-indol-3-yl)(4-(trifluoromethyl)phenyl)methylium methanesulfonate] | – | effectively induce PARP cleavage | reduced the expression levels
13 | – | – | Fc1ccc2[nH]cc([C+](c3ccc(C(F)(F)F)cc3)c3c[nH]c4ccc(F)cc34)c2c1 [Compound 10, Bis(5-fluoro-1H-indol-3-yl)(4-(trifluoromethyl)phenyl)methylium methanesulfonate] | – | effectively induce PARP cleavage | reduced the expression levels
14 | – | – | CCCCn1cc([C+](c2ccc(C(F)(F)F)cc2)c2c[nH]c3ccccc23)c2ccccc21.[Cl-] [Compound 49, (1-Butyl-1H-indol-3-yl)(1H-indol-3-yl)(4-(trifluoromethyl)phenyl)methylium chloride] | – | effectively induce PARP cleavage | reduced the expression levels
15 | – | – | Cc1cccc2c([C+](c3ccc(C(F)(F)F)cc3)c3c[nH]c4ccccc34)c[nH]c12.[Cl-] [Compound 55, (7-Methyl-1H-indol-3-yl)(1H-indol-3-yl)(4-(trifluoromethyl)phenyl)methylium chloride] | – | effectively induce PARP cleavage | reduced the expression levels
16 | – | – | Fc1ccc2c([C+](c3ccc(C(F)(F)F)cc3)c3c[nH]c4cc(F)ccc34)c[nH]c2c1 [Compound 21, Bis(6-fluoro-1H-indol-3-yl)(4-(trifluoromethyl)phenyl)methylium methanesulfonate] | – | effectively induce PARP cleavage | reduced the expression levels
17 | < 500 nM | < 500 nM | Fc1ccc2c([C+](c3ccc(C(F)(F)F)cc3)c3c[nH]c4ccccc34)c[nH]c2c1.[Cl-] [Compound 70, (6-Fluoro-1H-indol-3-yl)(1H-indol-3-yl)(4-(trifluoromethyl)phenyl)methylium chloride] | effectively induced PARP cleavage | – | –
18 | < 500 nM | < 500 nM | Fc1cc([C+](c2c[nH]c3ccccc23)c2c[nH]c3ccccc23)ccc1C(F)(F)F.[Cl-] [Compound 103, (3-Fluoro-4-(trifluoromethyl)phenyl)di(1H-indol-3-yl)methylium chloride] | effectively induced PARP cleavage | – | –
19 | < 500 nM | < 500 nM | Cn1cc([C+](c2ccc(C(F)(F)F)cc2)c2c[nH]c3ccccc23)c2ccc(F)cc21.[Cl-] [Compound 88, (6-Fluoro-1-methyl-1H-indol-3-yl)(1H-indol-3-yl)(4-(trifluoromethyl)phenyl)-methylium chloride] | effectively induced PARP cleavage | – | –
20 | < 500 nM | < 500 nM | CCn1cc([C+](c2ccc(C(F)(F)F)cc2)c2c[nH]c3ccccc23)c2ccccc21.[Cl-] [Compound 47, (1-Ethyl-1H-indol-3-yl)(1H-indol-3-yl)(4-(trifluoromethyl)phenyl)methylium chloride] | effectively induced PARP cleavage | – | –
21 | < 500 nM | < 500 nM | Cn1cc([C+](c2ccc(C(F)(F)F)cc2)c2c[nH]c3c(F)cccc23)c2ccccc21.[Cl-] [Compound 89, (7-Fluoro-1H-indol-3-yl)(1-methyl-1H-indol-3-yl)(4-(trifluoromethyl)phenyl)-methylium chloride] | effectively induced PARP cleavage | – | –
22 | – | – | Fc1cccc2[nH]cc([C+](c3ccc(C(F)(F)F)cc3)c3c[nH]c4cccc(F)c34)c12.[Cl-] [Compound 43, Bis(4-fluoro-1H-indol-3-yl)(4-(trifluoromethyl)phenyl)methylium chloride] | – | effectively induce PARP cleavage | reduced the expression levels
23 | – | – | Cc1ccc2c([C+](c3ccc(C(F)(F)F)cc3)c3c[nH]c4cc(C)ccc34)c[nH]c2c1 [Compound 18, Bis(6-methyl-1H-indol-3-yl)(4-(trifluoromethyl)phenyl)methylium chloride] | – | effectively induce PARP cleavage | reduced the expression levels
24 | – | – | Oc1ccc2[nH]cc([C+](c3ccc(C(F)(F)F)cc3)c3c[nH]c4ccc(O)cc34)c2c1.[Cl-] [Compound 46, Bis(5-hydroxy-1H-indol-3-yl)(4-(trifluoromethyl)phenyl)methylium chloride] | – | effectively induce PARP cleavage | reduced the expression levels
25 | – | – | Cc1ccc2[nH]cc([C+](c3ccc(C(F)(F)F)cc3)c3c[nH]c4ccccc34)c2c1.[Cl-] [Compound 57, (5-Methyl-1H-indol-3-yl)(1H-indol-3-yl)(4-(trifluoromethyl)phenyl)methylium chloride] | – | effectively induce PARP cleavage | reduced the expression levels
